Experimental findings from publication PMC7827406, “Structure–Activity Relationship (SAR) Study of Spautin-1 to Entail the Discovery of Novel NEK4 Inhibitors” (International Journal of Molecular Sciences, 2021) are described below.

Assay in all cases: biochemical
What all share (design): Eurofins KinaseProfiler full panel at Km ATP, residual kinase activity (%) relative to DMSO

One assay deals with T1, TTK(h) (Homo sapiens, UniProt P33981).
T1 sequence (P33981 1-857): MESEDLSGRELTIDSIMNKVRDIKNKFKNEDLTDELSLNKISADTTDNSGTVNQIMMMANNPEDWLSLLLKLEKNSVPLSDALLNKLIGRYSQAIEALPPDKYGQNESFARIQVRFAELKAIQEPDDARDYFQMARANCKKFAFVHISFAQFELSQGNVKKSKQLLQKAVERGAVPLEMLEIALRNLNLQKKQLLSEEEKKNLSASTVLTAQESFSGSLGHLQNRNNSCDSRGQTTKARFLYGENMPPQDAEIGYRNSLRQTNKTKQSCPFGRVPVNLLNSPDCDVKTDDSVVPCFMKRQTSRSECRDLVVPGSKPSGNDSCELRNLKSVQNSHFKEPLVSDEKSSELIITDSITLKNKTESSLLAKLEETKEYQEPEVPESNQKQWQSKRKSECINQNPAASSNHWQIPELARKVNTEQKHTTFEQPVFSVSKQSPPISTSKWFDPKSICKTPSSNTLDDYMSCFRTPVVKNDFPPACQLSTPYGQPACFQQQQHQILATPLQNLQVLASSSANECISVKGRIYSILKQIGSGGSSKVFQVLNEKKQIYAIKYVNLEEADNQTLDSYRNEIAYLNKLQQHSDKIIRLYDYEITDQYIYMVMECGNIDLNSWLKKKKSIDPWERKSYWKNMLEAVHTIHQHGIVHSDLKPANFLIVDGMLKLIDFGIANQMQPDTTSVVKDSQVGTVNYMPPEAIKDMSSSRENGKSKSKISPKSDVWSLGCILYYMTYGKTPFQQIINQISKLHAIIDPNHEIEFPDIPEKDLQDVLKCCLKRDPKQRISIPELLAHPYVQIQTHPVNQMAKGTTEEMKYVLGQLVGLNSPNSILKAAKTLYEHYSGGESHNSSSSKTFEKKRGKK
Summed up: (§1)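 Radiometric kinase activity assays were run with ATP at Km and compounds at 10 µM, and remaining activity (%) was reported. A separate competitive binding screen measured DNA-tagged kinase displaced from immobilized active-site ligands by qPCR, giving percent kinase still bound at 10 µM compound in DMSO.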

For a further assay, the target named is T2, PRKG2(h) (Homo sapiens, UniProt Q13237).
T2 sequence (Q13237 1-762): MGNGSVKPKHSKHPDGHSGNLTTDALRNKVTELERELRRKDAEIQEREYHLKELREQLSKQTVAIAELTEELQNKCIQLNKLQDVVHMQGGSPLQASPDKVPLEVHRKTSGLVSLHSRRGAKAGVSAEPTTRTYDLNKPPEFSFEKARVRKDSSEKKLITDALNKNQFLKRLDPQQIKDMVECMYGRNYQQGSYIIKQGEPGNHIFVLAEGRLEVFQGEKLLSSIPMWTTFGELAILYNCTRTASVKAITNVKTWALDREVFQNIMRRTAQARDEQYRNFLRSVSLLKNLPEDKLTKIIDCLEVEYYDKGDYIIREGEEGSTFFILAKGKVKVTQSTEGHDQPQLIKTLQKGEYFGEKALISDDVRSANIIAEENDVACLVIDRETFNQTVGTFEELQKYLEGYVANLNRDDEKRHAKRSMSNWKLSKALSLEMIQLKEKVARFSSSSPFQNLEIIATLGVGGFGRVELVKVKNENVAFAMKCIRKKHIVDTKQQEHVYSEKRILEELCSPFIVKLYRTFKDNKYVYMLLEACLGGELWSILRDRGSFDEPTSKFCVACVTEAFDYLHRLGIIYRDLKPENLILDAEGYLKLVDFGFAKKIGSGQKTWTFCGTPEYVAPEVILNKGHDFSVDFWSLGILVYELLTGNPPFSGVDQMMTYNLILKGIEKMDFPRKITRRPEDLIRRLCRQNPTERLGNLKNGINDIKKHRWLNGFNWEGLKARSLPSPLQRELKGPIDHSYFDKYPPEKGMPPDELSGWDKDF
An outline of the steps:
as §1

A further assay concerns the target CDK16/cyclinY(h) (Homo sapiens, UniProt Q00536). Summed up: as §1
The target of a further assay is Src(T341M)(h) (Homo sapiens, UniProt P12931, T341M). Summed up:
as §1

In a further assay the target is T3, Abl(h) (Homo sapiens, UniProt P00519).
T3 construct: gene ABL1
An outline of the steps: as §1

The target of a further assay is T4, PKCα(h) (Homo sapiens, UniProt P17252).
T4 construct: gene PRKCA
Summed up:
as §1

Where [1] appears, read: read-out: Residual activity (%) Spautin-1 5aa.
[2] abbreviates: read-out: Residual activity (%) 5as.
Setting [3] is: read-out: Residual activity (%) 5at.
Where [4] appears, read: read-out: Residual activity (%) 5ay.

Read-outs that look alike come from different tables or passages of the source.

T3 sequence (P00519 whole entry): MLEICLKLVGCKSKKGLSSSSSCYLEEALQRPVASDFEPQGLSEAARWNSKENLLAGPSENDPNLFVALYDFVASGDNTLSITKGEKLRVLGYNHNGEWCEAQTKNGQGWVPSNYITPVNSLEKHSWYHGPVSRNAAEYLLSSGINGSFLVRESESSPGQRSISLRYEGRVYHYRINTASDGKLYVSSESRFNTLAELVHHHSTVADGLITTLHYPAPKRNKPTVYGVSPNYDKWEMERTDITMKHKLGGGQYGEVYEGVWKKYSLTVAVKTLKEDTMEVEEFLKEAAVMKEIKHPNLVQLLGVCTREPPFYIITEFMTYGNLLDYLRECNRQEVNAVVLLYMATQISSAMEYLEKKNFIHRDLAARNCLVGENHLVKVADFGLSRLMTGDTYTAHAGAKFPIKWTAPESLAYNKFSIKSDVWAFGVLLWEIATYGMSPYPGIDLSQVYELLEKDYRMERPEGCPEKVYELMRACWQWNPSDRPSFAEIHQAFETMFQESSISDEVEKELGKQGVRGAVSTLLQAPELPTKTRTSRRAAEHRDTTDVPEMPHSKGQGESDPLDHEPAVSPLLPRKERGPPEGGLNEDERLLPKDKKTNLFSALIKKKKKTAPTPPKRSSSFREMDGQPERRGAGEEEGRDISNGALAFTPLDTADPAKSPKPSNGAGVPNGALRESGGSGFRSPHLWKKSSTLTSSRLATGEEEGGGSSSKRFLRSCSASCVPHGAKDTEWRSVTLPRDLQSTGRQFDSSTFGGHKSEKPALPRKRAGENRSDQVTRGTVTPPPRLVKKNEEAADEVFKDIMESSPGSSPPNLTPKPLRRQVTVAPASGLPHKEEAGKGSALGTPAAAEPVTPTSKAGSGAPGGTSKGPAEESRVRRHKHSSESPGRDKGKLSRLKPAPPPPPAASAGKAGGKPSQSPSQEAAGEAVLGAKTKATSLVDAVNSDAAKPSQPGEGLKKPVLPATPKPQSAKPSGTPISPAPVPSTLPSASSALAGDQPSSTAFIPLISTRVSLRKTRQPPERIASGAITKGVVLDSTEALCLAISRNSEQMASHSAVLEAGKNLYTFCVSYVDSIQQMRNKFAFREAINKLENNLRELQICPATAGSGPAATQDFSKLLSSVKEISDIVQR
Chain of CDK16/cyclinY(h) (Q00536 whole entry): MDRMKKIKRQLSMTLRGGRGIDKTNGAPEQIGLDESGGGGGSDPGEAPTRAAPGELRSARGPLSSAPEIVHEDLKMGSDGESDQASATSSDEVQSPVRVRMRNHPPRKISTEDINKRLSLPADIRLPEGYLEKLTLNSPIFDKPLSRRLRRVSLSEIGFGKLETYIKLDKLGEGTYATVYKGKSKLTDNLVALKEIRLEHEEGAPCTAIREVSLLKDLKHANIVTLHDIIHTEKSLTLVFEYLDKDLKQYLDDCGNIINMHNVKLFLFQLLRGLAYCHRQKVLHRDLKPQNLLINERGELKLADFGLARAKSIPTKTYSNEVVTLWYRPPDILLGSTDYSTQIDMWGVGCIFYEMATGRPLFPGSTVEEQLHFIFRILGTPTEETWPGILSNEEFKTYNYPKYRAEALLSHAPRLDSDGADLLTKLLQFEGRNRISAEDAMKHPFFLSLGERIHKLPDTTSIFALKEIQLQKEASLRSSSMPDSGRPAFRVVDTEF
Chain of CDK16/cyclinY(h) (Q8ND76 whole entry partner): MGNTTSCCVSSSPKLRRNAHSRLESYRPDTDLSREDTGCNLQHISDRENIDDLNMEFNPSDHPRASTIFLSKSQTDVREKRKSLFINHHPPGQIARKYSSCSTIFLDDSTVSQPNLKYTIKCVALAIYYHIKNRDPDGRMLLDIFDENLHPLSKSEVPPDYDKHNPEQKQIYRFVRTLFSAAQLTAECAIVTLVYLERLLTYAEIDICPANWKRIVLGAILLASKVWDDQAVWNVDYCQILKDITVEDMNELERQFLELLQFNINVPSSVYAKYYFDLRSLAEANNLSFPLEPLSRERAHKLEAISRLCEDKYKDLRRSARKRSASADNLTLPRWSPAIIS
Chain of Src(T341M)(h) (P12931 whole entry T341M): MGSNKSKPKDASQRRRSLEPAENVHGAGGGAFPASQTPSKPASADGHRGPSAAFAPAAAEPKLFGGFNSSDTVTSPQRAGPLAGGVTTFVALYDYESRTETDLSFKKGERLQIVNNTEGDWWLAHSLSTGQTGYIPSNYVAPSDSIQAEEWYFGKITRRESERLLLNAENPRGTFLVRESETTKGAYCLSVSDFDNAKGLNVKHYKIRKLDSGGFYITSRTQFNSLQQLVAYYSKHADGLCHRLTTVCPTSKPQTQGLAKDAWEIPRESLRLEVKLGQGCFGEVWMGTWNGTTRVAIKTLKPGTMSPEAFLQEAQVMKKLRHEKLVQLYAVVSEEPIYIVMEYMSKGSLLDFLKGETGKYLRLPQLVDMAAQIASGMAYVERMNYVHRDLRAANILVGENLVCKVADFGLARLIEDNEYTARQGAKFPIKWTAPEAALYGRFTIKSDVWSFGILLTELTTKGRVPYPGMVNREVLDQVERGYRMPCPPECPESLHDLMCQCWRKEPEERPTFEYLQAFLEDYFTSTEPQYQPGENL

Consider `Fc1ccc(CNc2ncnc3ccc(F)cc23)cc1` [5aa, 6-Fluoro-N-(4-fluorobenzyl)-4-Quinazolinamine], for which the remaining activity at 10 µM on TTK(h) (setting [1]) turned out to be 64%; at PRKG2(h) (setting [1]), 103%; at CDK16/cyclinY(h) (setting [1]), 90%; on Src(T341M)(h) (setting [1]) it was 94%; at Abl(h) (setting [1]) it was 83%; on PKCα(h) (setting [1]), 89%.
Turning to `Fc1ccc(CCNc2ncnc3ccc(F)cc23)cc1` [5as, 6-Fluoro-N-[2-(4-Fluorophenyl)Ethyl]-4-Quinazolinamine], the remaining activity at 10 µM on TTK(h) (setting [2]) amounted to 84%; on PRKG2(h) (setting [2]) it was 96%; on CDK16/cyclinY(h) (setting [2]), 114%; on Src(T341M)(h) (setting [2]), 103%; at Abl(h) (setting [2]) it was 91%; at PKCα(h) (setting [2]), 94%.
As to `Fc1ccc2ncnc(NCCc3ccc(Cl)cc3)c2c1` [5at, N-[2-(4-Chlorophenyl)Ethyl]-6-Fluoro-4-Quinazolinamine], the remaining activity at 10 µM on TTK(h) (setting [3]) came out at 89%; at PRKG2(h) (setting [3]), 79%; on CDK16/cyclinY(h) (setting [3]) it was 104%; at Src(T341M)(h) (setting [3]) it was 83%; on Abl(h) (setting [3]) it was 96%; on PKCα(h) (setting [3]), 79%.
Regarding `COc1ccc2ncnc(Nc3cccc(F)c3)c2c1` [5ay, N-(3-Fluorophenyl)-6-Methoxy-4-Quinazolinamine], the remaining activity at 10 µM on TTK(h) (setting [4]) is 104%; at PRKG2(h) (setting [4]) it was 113%; on CDK16/cyclinY(h) (setting [4]), 81%; at Src(T341M)(h) (setting [4]), 96%; on Abl(h) (setting [4]), 74%; on PKCα(h) (setting [4]) it was 86%.
